Source: patent US20090029992A1, “SUBSTITUTED PYRAZOLE COMPOUNDS” (priority 2007, published 2009)

Legend:
[1] = target: T1, N-terminal His-tagged human Src (Homo sapiens, UniProt P12931); assay: Src kinase inhibition assay (33P-ATP filter assay); type: biochemical; settings: 40 minutes at room temperature
T1 construct: His (N); purchased Upstate USA Inc, 706 Forest Street, Charlottesville, Va

[2] = target: T2, Aurora B kinase (Homo sapiens, UniProt Q96GD4); assay: Aurora B (Aurora 1) inhibition assay; type: biochemical; settings: ATP 50 μM, 16 h
T2 construct: purchased BPS Biosciences, San Diego, Calif
T2 sequence (Q96GD4 whole entry): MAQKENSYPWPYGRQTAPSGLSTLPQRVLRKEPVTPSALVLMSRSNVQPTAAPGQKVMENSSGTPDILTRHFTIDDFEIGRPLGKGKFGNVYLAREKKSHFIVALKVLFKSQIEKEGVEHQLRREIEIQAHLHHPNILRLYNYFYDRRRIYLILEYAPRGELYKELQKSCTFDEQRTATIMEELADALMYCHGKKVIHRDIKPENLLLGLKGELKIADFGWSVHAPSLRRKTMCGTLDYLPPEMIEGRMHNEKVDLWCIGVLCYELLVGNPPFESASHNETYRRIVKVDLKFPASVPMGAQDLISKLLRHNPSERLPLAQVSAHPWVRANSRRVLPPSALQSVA
Procedure: Compounds were tested for their potency against recombinant Aurora A (Upstate, Lake Placid, N.Y.) using the PanVera Z′-Lyte kinase assay kit—Ser/Thr 1 peptide (Invitrogen, Carlsbad, Calif.). Assays were carried out in kinase assay buffer (50 mM HEPES, pH 7.5, 10 mM MgCl2, 5 mM EGTA, 0.05% Brij-35, 2 mM DTT). Test compounds were initially dissolved in DMSO at 100× the highest tested concentration, then serially diluted to 4× test concentrations in kinase assay buffer. Next, Aurora A (final concentration 200-500 ng/mL), Z′-Lyte Ser/Thr 1 peptide (final concentration 2 μM) and ATP (final concentration 10 μM) were added according to the manufacturer's instructions. Assays were carried out in half-area 96-well white polystyrene assay plates (Corning, Corning, N.Y.) in a final volume of 20 μl. The reaction was allowed to proceed for 1 h at room temperature in the dark, at which point the development reagent and stop reagent were added according to the manufacturer's instructions. Coumarin (Ex. 400 nm, Em. 465 nm) and fluorescein (Ex. 400 nm, Em. 565 nm) fluorescence values were measured on a SpectraFluor Plus plate reader (Tecan, Durham, N.C.). The emission ratio (coumarin/fluorescein) was determined and used to calculate the percent phosphorylation for each well. Wells containing substrate but no kinase and wells containing a phosphopeptide control were used to set 0% and 100% phosphorylation values, respectively. Typically 20-40% of the substrate was phosphorylated in wells without inhibitor. Dose-response curves of relative Aurora A activity vs. inhibitor concentration were plotted with Grafit (Erithacus Software, Horley, Surrey, UK).
Assays for Aurora B kinase inhibition were carried out similarly to those for Aurora A kinase (see above) with the following modifications. Aurora B kinase (BPS Biosciences, San Diego, Calif.) was used as the enzyme, at a concentration was 2.5 μg/mL. The ATP concentration was 50 μM, and the kinase reaction was allowed to proceed for 16 h. Sodium orthovanadate (20 μM) was added to the buffer to inhibit contaminating phosphatases.

[3] = tested on: HCT116 cells; assay: Whole cell cytotoxicity assay, Sulforhodamine B; type: cell-based; settings: Homo sapiens, HCT-116, HCT116, 96 hours incubation, SRB; for GI50: read-out: GI50 HCT116 cell growth; for IC50: read-out: IC50 values in this assay (HCT116 cell growth)
Summary of the method: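 HCT116 cells (500/well) in DMEM/10% FBS/2 mM glutamine were preincubated 24 h, then exposed to compound for 96 h at 37 °C, 5% CO2, in duplicate. Cells were fixed with TCA and stained with sulforhodamine B (A570). GI50, TGI and LC50 were derived relative to a time-zero plate and an untreated control.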

T1 sequence (P12931 whole entry): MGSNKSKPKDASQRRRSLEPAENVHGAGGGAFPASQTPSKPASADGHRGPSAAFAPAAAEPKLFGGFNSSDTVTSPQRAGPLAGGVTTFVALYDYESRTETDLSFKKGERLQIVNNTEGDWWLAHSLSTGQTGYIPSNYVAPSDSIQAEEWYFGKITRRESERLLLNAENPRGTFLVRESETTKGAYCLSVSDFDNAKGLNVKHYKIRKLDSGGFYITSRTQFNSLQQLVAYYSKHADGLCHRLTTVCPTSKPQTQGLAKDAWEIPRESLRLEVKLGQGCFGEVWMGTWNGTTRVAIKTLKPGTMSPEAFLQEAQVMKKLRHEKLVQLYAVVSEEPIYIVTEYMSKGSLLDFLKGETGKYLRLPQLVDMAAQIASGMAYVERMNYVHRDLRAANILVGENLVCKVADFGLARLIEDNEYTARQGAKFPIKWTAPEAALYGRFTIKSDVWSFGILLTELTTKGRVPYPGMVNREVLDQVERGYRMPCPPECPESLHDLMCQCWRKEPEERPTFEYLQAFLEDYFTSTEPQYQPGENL

| IC50 [1] [nM] | IC50 [2] [nM] | Compound | GI50 [3] [nM] | IC50 [3] [nM] |
| --- | --- | --- | --- | --- |
| ≤ 100 | ≤ 1000 | COc1cc(OC)cc(-c2nc(Nc3cc(C)[nH]n3)cc(N3CCN(C)CC3)n2)c1 [Example 191, 2-(3,5-dimethoxyphenyl)-N-(5-methyl-1H-pyrazol-3-yl)-6-(4-methylpiperazin-1-yl)pyrimidin-4-amine] | ≤ 1000 |  |
| ≤ 100 | ≤ 1000 | Cc1cc(Nc2cc(NC3CCOCC3)nc(-c3cccc(N(C)C)c3)n2)n[nH]1 [Compound 74, 2-(3-(dimethylamino)phenyl)-N^4-(5-methyl-1H-pyrazol-3-yl)-N^6-(tetrahydro-2H-pyran-4-yl)pyrimidine-4,6-diamine] | ≤ 1000 |  |
|  | ≤ 1000 | CC(=O)c1cccc(-c2nc(Nc3cc(C)[nH]n3)cc(N3CCN(C)CC3)n2)c1 [Example 165, 1-(3-(4-(5-methyl-1H-pyrazol-3-ylamino)-6-(4-methylpiperazin-1-yl)pyrimidin-2-yl)phenyl)ethanone] | ≤ 1000 |  |
| ≤ 100 | ≤ 1000 | COc1cccc(-c2nc(Nc3cc(C)[nH]n3)cc(N3CCN(C)CC3)n2)c1 [Compound 42, 2-(3-methoxyphenyl)-N-(5-methyl-1H-pyrazol-3-yl)-6-(4-methylpiperazin-1-yl)pyrimidin-4-amine] | ≤ 1000 |  |
| ≤ 100 | ≤ 1000 | Cc1cc(Nc2cc(NC3CCOCC3)nc(-c3cc4ccccc4o3)n2)n[nH]1 [Compound 15, 2-(benzofuran-2-yl)-N^4-(tetrahydro-2H-pyran-4-yl)-N^6-(5-methyl-1H-pyrazol-3-yl)-pyrimidine-4,6-diamine] | ≤ 1000 |  |
| ≤ 100 | ≤ 1000 | Cc1cc(Nc2cc(N3CCN(C)CC3)nc(-c3cccc([N+](=O)[O-])c3)n2)n[nH]1 [Example 162, N-(5-methyl-1H-pyrazol-3-yl)-6-(4-methylpiperazin-1-yl)-2-(3-nitrophenyl)pyrimidin-4-amine] | ≤ 1000 |  |
| ≤ 100 | ≤ 1000 | Cc1cc(Nc2cc(N3CCN(C)CC3)nc(-c3cccc(Cl)c3)n2)n[nH]1 [Compound 36, 2-(3-chlorophenyl)-N-(5-methyl-1H-pyrazol-3-yl)-6-(4-methylpiperazin-1-yl)pyrimidin-4-amine] | ≤ 1000 |  |
| ≤ 100 | ≤ 1000 | Cc1cc(Nc2cc(N3CCN(C)CC3)nc(-c3cccc(F)c3)n2)n[nH]1 [Compound 33, 2-(3-fluorophenyl)-N-(5-methyl-1H-pyrazol-3-yl)-6-(4-methylpiperazin-1-yl)pyrimidin-4-amine] | ≤ 1000 |  |
| ≤ 100 | ≤ 1000 | Cc1cc(Nc2cc(N3CCN(C)CC3)nc(-c3ccccc3)n2)n[nH]1 [Compound 8, N-(5-methyl-1H-pyrazol-3-yl)-6-(4-methylpiperazin-1-yl)-2-phenyl pyrimidin-4-amine] | ≤ 1000 |  |
| ≤ 100 | ≤ 1000 | COC(=O)c1cccc(-c2nc(Nc3cc(C)[nH]n3)cc(N3CCN(C)CC3)n2)c1 [Example 166, methyl 3-(4-(5-methyl-1H-pyrazol-3-ylamino)-6-(4-methylpiperazin-1-yl)pyrimidin-2-yl)benzoate] | ≤ 1000 |  |
| ≤ 100 | ≤ 1000 | Cc1cc(Nc2cc(NC3CCOCC3)nc(-c3ccc4c(c3)OCCO4)n2)n[nH]1 [Example 130, 2-(2,3-dihydrobenzo[b][1,4]dioxin-6-yl)-N^4-(5-methyl-1H-pyrazol-3-yl)-N^6-(tetrahydro-2H-pyran-4-yl)pyrimidine-4,6-diamine] |  | 1000 to 10000 |
| ≤ 100 | ≤ 1000 | Cc1cc(Nc2cc(N3CCN(C)CC3)nc(-c3ccc4c(c3)OCO4)n2)n[nH]1 [Example 139, 2-(benzo[d][1,3]dioxol-5-yl)-N-(5-methyl-1H-pyrazol-3-yl)-6-(4-methylpiperazin-1-yl)pyrimidin-4-amine] | ≤ 1000 |  |
| ≤ 100 | ≤ 1000 | Cc1cc(Nc2cc(N3CCN(C)CC3)nc(-c3cc(F)cc(F)c3)n2)n[nH]1 [Example 170, 2-(3,5-difluorophenyl)-N-(5-methyl-1H-pyrazol-3-yl)-6-(4-methylpiperazin-1-yl)pyrimidin-4-amine] | ≤ 1000 |  |
| ≤ 100 | ≤ 1000 | Cc1cc(Nc2cc(N3CCN(C)CC3)nc(-c3cccc(-c4ccccc4)c3)n2)n[nH]1 [Compound 16, 2-(biphenyl-3-yl)-N-(5-methyl-1H-pyrazol-3-yl)-6-(4-methylpiperazin-1-yl)pyrimidin-4-amine] | ≤ 1000 |  |
| ≤ 100 | ≤ 1000 | Cc1cc(Nc2cc(N3CCN(C)CC3)nc(-c3ccc4c(c3)OCCO4)n2)n[nH]1 [Example 137, 2-(2,3-dihydrobenzo[b][1,4]dioxin-6-yl)-N-(5-methyl-1H-pyrazol-3-yl)-6-(4-methylpiperazin-1-yl)pyrimidin-4-amine] | ≤ 1000 |  |
| ≤ 100 | ≤ 1000 | Cc1cc(Nc2cc(NC3CCOCC3)nc(-c3cccc(F)c3)n2)n[nH]1 [Compound 20, 2-(3-fluorophenyl)-N^4-(5-methyl-1H-pyrazol-3-yl)-N^6-(tetrahydro-2H-pyran-4-yl)pyrimidine-4,6-diamine] |  | 1000 to 10000 |
| ≤ 100 | ≤ 1000 | Cc1cc(Nc2cc(N3CCN(C)CC3)nc(-c3cccc(C#N)c3)n2)n[nH]1 [Example 163, 3-(4-(5-methyl-1H-pyrazol-3-ylamino)-6-(4-methylpiperazin-1-yl)pyrimidin-2-yl)benzonitrile] | ≤ 1000 |  |
| ≤ 100 | ≤ 1000 | CCOc1cccc(-c2nc(Nc3cc(C)[nH]n3)cc(N3CCN(C)CC3)n2)c1 [Example 190, 2-(3-ethoxyphenyl)-N-(5-methyl-1H-pyrazol-3-yl)-6-(4-methylpiperazin-1-yl)pyrimidin-4-amine] | ≤ 1000 |  |
